Here are results for three compounds from paper PMC12152883, “Bile acids inhibit equilibrative adenosine transport to alter adenosine receptor signaling in cholestasis” (The Journal of Biological Chemistry, 2025).

One experiment deals with T1, ENT3 (Homo sapiens, UniProt Q9BZD2).
T1 construct: plasma membrane–directed ENT3 with a truncated N-terminus (that harbors lysosomal targeting motif); expressed in transfected cells; host or cells: Xenopus laevis oocytes injected with in vitro-transcribed mRNA from pOX-Δ36hENT3
T1 sequence (Q9BZD2 with tags, fused parts or gaps): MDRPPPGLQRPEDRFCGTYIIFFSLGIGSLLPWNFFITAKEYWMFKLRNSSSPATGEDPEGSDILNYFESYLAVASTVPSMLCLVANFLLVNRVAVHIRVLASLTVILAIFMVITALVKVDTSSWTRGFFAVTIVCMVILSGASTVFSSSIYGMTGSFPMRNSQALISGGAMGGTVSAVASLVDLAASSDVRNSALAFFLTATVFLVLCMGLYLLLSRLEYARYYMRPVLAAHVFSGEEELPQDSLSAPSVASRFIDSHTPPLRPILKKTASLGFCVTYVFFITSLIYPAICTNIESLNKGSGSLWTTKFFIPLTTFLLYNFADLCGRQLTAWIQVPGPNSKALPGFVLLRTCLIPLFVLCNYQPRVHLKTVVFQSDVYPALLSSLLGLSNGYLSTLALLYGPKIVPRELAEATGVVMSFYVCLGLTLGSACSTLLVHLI
Details: method as in PMID 33623001. Conditions: previous studies, cited from earlier work; for Km: read-out: Km of BA transport by ENT3.

The next experiment deals with T2, ENT1 (Homo sapiens, UniProt Q99808).
T2 construct: The complete ORF of ENT1 (amplified using forward primer); expressed in transfected cells; host or cells: Xenopus laevis oocytes injected with in vitro-transcribed capped mRNA from pOX-hENT1
T2 sequence (Q99808 1-456): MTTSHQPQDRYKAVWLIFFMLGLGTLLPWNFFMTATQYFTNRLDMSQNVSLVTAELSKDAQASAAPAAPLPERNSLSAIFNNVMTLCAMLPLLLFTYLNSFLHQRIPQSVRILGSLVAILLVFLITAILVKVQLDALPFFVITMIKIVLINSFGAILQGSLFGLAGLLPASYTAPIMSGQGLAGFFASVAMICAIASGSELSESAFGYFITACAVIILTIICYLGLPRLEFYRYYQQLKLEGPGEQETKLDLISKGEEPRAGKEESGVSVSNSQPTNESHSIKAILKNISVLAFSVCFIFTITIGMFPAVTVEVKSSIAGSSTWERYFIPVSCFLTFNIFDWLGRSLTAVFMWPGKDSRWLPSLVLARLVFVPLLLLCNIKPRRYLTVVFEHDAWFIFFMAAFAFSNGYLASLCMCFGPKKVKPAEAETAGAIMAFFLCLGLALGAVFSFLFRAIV
Briefly: Inhibition of 3H-nucleoside influx by BAs in ENT1-expressing Xenopus oocytes. The settings on record: 3H-Ado 20 μM, sodium-free buffer; for ENT1 % uptake inhibition (Ado): BA 100 μM. It is filed as cell-based. An excerpt:
We expressed individual ENTs (ENT1, ENT2, and ENT3) in X. laevis oocytes (as described above) and analyzed the Ado influx from each of the ENTs in the presence of different BAs to better understand whether the inhibition profiles differ across human ENTs. […] We also conducted an analysis of the concentration-dependent inhibition of Ado transport to estimate the IC50 values of the BAs (Fig. 4, D–F and Table 2).
Inhibition of Ado influx in H2O- and ENT-injected oocytes by treatment with different BAs at 100 μM. D–F, concentration-dependent inhibition of Ado influx in ENT-injected oocytes by different BAs. The bars represent the mean ± SD (n = 8–12 oocytes). A representative experiment from 3 to 5 independent experiments is presented. Statistical analysis was performed using one-way ANOVA with Dunnett’s multiple comparisons test; ∗p < 0.032, ∗∗p < 0.0021, ∗∗∗∗p < 0.0001.
The generated pOX expression constructs were linearized with either the Not1 or Sac1 restriction enzymes. The digested products were purified via phenol‒chloroform extraction. The mRNAs were synthesized using mMESSAGE mMACHINE (Ambion) transcription kits according to the manufacturer’s instructions. The mRNAs were purified via lithium precipitation. Oocytes were procured from Ecocyte. Prior to experiments, procured oocytes were defolliculated by treating with collagenase A-OR II solution followed by washing with Barth’s solution. Following microscopic verification, selected oocytes were incubated to recover overnight at 25 °C in a shaker incubator. Fifty nanoliters (400–800 ng/μl) of equal amounts of mRNAs were injected into defolliculated oocytes the next day. Expression of plasmids was analyzed after RNA isolation from oocyte extracts and conducting qPCR analysis with gene-specific primers as described earlier ([30]). The injected oocytes were incubated at 15 °C for 24 h before transport assays were performed. […] Uptake was terminated by washing the oocytes three times with arrest buffer containing 20 mM uridine. Individual oocytes were shaken overnight in 10% SDS for complete dissolution, and then the radioactivity was quantified with a Beckman liquid scintillation counter. The data are presented as the mean ± SD (n = 8–12 oocytes). A representative experiment from 3 to 5 independent experiments is presented.

Setting [1] is: read-out: ENT1 IC50 (Ado uptake).

Each structure is given as a SMILES string. Where “and” joins values, the source holds several entries; their conditions need not be identical. Identical values can stand only once. Like-named read-outs stand apart in the source and are kept apart here.

For the compound `C[C@H](CCC(=O)O)[C@H]1CC[C@H]2[C@@H]3CC[C@@H]4C[C@H](O)CC[C@]4(C)[C@H]3C[C@H](O)[C@]12C` [DCA, deoxycholic acid], at ENT3, the “Vmax of BA transport by ENT3” value was 3.4 ± 0.06 pmol/30 min/oocyte and the Km (as a rule, the substrate concentration at which the rate is half of its maximum) is 270 ± 24.3 µM. For the same compound, the IC50 (commonly the concentration needed to halve the response being measured) at ENT1 (setting [1]) was 56.4 ± 14.9 µM. In addition, the “ENT1 % uptake inhibition (Ado)” value on ENT1 was 69% and 71.01%.

In the case of `C[C@H](CCC(=O)NCCS(=O)(=O)O)[C@H]1CC[C@H]2[C@@H]3[C@H](O)C[C@@H]4C[C@H](O)CC[C@]4(C)[C@H]3C[C@H](O)[C@]12C` [TCA, taurocholic acid], the “ENT1 % uptake inhibition (Ado)” value at ENT1 is reported as 80.39%. On ENT1 (ENT1 IC50 (Ado uptake)), this compound returned an IC50 of 52.9 ± 14.6 µM.

Regarding `C[C@H](CCC(=O)O)[C@H]1CC[C@H]2[C@@H]3[C@H](O)C[C@@H]4C[C@H](O)CC[C@]4(C)[C@H]3C[C@H](O)[C@]12C` [CA, cholic acid], on ENT3, the “Vmax of BA transport by ENT3” value was 3.07 ± 0.04 pmol/30 min/oocyte and the Km is 168 ± 13.3 µM. Moreover, the IC50 at ENT1 (setting [1]) stood at 42.1 ± 8.7 µM. Further, the “ENT1 % uptake inhibition (Ado)” value at ENT1 worked out at 45.48%.
